Test results taken from the supplement of paper PMC5908809.

Columns and labels:
[1] = test system: normal NK cells expanded with K562-aAPC; experiment: drug sensitivity score (DSS) (DSS units); higher = more sensitive; extreme values may be limits of the assay; conditions: 72 h; IL-2 2.5 ng/mL
Method: (§1)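 Drug sensitivity and resistance testing on K562-aAPC-expanded normal NK cells: 5 concentrations (10-fold steps over a 10,000-fold range), 72 h at 37 °C, viability by CellTiter-Glo normalised to DMSO and benzethonium chloride controls; DSS from the fitted curve.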

[2] = test system: IMC-1 (IL-2 20 ng/mL); experiment: as above; conditions: 72 h
[3] = test system: NKL (IL-2 2.5 ng/mL); experiment: as above; conditions: 72 h
[4] = test system: normal primary NK cells, pool 3 (3 donors) (IL-2 2.5 ng/mL); experiment: as above; conditions: 72 h
[5] = test system: NK-YS (IL-2 2.5 ng/mL); experiment: as above; conditions: 72 h
[6] = test system: KHYG-1 (IL-2 2.5 ng/mL); experiment: as above; conditions: 72 h
[7] = test system: DERL-7 (IL-2 2.5 ng/mL); experiment: as above; conditions: 72 h
[8] = test system: NK-92 (IL-2 2.5 ng/mL); experiment: as above; conditions: 72 h
[9] = test system: YT (IL-2 2.5 ng/mL); experiment: as above; conditions: 72 h
[10] = test system: normal primary NK cells, pool 2 (3 donors) (IL-2 2.5 ng/mL); experiment: as above; conditions: 72 h
[11] = test system: KAI3 (IL-2 2.5 ng/mL); experiment: as above; conditions: 72 h
[12] = test system: normal primary NK cells, pool 1 (3 donors), resting (IL-2 0 ng/mL); experiment: as above; conditions: 72 h
[13] = test system: SNK-6 (IL-2 2.5 ng/mL); experiment: as above; conditions: 72 h
[14] = test system: normal primary NK cells, pool 1 (3 donors) (IL-2 2.5 ng/mL); experiment: as above; conditions: 72 h
[15] = test system: IMC-1 (IL-2 20 ng/mL); experiment: percent inhibition of viability; higher = more inhibition; conditions: 72 h
[16] = test system: NKL (IL-2 2.5 ng/mL); experiment: as above; conditions: 72 h
[17] = test system: normal primary NK cells, pool 3 (3 donors) (IL-2 2.5 ng/mL); experiment: as above; conditions: 72 h
[18] = test system: NK-YS (IL-2 2.5 ng/mL); experiment: as above; conditions: 72 h
[19] = test system: KHYG-1 (IL-2 2.5 ng/mL); experiment: as above; conditions: 72 h
[20] = test system: DERL-7 (IL-2 2.5 ng/mL); experiment: as above; conditions: 72 h
[21] = test system: NK-92 (IL-2 2.5 ng/mL); experiment: as above; conditions: 72 h
[22] = test system: YT (IL-2 2.5 ng/mL); experiment: as above; conditions: 72 h
[23] = test system: normal primary NK cells, pool 2 (3 donors) (IL-2 2.5 ng/mL); experiment: as above; conditions: 72 h
[24] = test system: KAI3 (IL-2 2.5 ng/mL); experiment: as above; conditions: 72 h
[25] = test system: normal primary NK cells, pool 1 (3 donors), resting (IL-2 0 ng/mL); experiment: as above; conditions: 72 h
[26] = test system: SNK-6 (IL-2 2.5 ng/mL); experiment: as above; conditions: 72 h
[27] = test system: normal primary NK cells, pool 1 (3 donors) (IL-2 2.5 ng/mL); experiment: as above; conditions: 72 h
[28] = test system: normal NK cells expanded with K562-aAPC; experiment: as above; conditions: 72 h, IL-2 2.5 ng/mL
Method: as §1

COc1ccc(-c2ccc3ncc4c(c3c2)n(-c2ccc(N3CCNCC3)c(C(F)(F)F)c2)c(=O)n4C)cn1 [NVP-BGT226] (max concentration tested 1000 nM)
Conditions	drug sensitivity score
[1]	11.6
[2]	11.9
[3]	13.7
[4]	8.86
[5]	17.5
[6]	14.8
[7]	24
[8]	16.7
[9]	11.3
[10]	9.95
[11]	14.1
[12]	13.2
[13]	14.1
[14]	10.9

percent inhibition of viability [%]
Conditions	0.1 nM	1 nM	10 nM	100 nM	1000 nM
[15]	-2.15	-4.82	-34.6	55.1	97.2
[16]	-10.6	-18.4	35.3	51.1	93.4
[17]	-7.84	-7.37	7.07	21.4	98.8
[18]	-4.92	-1.99	27.6	76.4	95.7
[19]	-2.44	1.07	4.41	76.8	95.9
[20]	-4.47	7.95	55.7	89	99.7
[21]	-5	-4.68	24.6	74.2	96.2
[22]	-4.65	-0.4	10.2	53.6	74.2
[23]	-6.87	0.35	13.2	39	99.7
[24]	-0.77	1.29	25.3	57.2	94.7
[25]	5.35	-4.97	14.6	59.2	99
[26]	8.89	4.85	13.6	64.3	98.2
[27]	-4.63	-3.38	9.25	46.3	99
[28]	-0.83	1.88	18.5	46.3	99.4
